Activity calls are given as the source filed them. For most assays here, no stated cut-off is given here; in the data, actives have a measured Kd and inactives only a lower limit.
How the values were obtained:
[1] = molecular target: T1, Cytochrome c1, heme protein, mitochondrial (Homo sapiens, UniProt P08574)
T1 sequence (P08574 whole entry): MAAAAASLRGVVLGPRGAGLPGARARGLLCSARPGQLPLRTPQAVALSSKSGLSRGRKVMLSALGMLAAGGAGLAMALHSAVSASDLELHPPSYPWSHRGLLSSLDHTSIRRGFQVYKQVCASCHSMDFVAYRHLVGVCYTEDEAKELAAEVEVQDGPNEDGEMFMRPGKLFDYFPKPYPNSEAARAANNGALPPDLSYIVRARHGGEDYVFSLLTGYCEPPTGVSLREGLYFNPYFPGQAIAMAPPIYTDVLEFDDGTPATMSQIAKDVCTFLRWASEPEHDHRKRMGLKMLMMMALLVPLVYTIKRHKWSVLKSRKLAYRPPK

[2] = molecular target: T2, Serine/threonine-protein kinase TBK1 (Homo sapiens, UniProt Q9UHD2)
T2 sequence (Q9UHD2 whole entry): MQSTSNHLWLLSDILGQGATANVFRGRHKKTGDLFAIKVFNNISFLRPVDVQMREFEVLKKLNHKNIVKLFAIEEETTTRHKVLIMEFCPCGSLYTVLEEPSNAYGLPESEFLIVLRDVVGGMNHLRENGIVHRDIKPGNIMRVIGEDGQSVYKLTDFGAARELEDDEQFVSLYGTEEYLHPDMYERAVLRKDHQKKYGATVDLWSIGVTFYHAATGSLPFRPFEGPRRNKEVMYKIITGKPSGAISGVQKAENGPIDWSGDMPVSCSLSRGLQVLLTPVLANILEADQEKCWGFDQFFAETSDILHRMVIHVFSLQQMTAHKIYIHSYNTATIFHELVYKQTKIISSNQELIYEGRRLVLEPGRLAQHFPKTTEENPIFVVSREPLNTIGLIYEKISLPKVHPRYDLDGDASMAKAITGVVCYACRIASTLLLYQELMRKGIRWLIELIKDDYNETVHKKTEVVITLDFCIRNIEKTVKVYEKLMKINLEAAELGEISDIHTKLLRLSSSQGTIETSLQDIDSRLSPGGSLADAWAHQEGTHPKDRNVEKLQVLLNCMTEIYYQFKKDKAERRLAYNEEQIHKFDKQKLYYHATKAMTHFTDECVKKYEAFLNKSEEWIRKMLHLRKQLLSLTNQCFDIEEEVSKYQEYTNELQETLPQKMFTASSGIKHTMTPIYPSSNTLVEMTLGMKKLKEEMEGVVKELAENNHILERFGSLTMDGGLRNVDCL

ADP/ATP translocase 3 = molecular target: T3, ADP/ATP translocase 3 (Homo sapiens, UniProt P12236)
T3 sequence (P12236 whole entry): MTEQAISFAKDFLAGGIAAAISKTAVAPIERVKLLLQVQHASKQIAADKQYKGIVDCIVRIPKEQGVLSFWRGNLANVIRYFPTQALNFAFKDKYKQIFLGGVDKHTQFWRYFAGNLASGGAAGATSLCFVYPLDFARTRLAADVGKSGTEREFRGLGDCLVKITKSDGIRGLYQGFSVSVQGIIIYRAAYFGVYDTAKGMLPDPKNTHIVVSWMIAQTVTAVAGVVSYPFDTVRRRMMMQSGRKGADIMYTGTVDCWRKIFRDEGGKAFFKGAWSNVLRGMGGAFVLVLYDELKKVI

[3] = molecular target: Mitogen-activated protein kinase kinase kinase kinase 4 (Homo sapiens, UniProt O95819)
Ephrin type-B receptor 2 = molecular target: T4, Ephrin type-B receptor 2 (Homo sapiens, UniProt P29323)
T4 sequence (P29323 whole entry): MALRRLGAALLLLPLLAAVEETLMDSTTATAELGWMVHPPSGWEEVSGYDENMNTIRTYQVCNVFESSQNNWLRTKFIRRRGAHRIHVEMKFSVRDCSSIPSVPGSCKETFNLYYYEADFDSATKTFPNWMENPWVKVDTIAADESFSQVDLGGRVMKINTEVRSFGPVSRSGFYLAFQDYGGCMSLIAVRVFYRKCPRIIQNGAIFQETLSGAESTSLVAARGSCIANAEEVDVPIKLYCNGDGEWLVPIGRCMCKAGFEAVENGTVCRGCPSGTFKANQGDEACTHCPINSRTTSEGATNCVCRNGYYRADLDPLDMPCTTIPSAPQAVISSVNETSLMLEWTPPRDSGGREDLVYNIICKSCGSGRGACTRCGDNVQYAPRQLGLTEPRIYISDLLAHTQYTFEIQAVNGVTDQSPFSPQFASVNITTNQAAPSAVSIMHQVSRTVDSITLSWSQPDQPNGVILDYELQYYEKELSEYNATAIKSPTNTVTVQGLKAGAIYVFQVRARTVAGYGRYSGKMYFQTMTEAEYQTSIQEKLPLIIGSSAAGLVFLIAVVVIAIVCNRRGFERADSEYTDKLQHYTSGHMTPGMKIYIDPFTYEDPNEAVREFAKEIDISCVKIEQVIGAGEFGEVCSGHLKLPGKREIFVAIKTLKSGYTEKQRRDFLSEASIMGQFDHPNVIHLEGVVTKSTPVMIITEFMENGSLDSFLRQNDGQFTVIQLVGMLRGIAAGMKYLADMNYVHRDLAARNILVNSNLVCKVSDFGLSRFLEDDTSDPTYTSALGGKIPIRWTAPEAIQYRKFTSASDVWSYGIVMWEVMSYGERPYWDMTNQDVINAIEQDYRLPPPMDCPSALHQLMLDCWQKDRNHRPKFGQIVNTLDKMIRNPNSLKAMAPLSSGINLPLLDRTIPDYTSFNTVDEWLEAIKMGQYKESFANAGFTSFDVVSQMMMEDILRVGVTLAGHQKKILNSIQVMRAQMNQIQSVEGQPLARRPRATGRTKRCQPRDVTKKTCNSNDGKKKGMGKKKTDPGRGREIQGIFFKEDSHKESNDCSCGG

[4] = molecular target: Myosin light chain kinase, smooth muscle (Homo sapiens, UniProt Q15746)
[5] = molecular target: T5, Calcium/calmodulin-dependent protein kinase type IV (Homo sapiens, UniProt Q16566)
T5 sequence (Q16566 whole entry): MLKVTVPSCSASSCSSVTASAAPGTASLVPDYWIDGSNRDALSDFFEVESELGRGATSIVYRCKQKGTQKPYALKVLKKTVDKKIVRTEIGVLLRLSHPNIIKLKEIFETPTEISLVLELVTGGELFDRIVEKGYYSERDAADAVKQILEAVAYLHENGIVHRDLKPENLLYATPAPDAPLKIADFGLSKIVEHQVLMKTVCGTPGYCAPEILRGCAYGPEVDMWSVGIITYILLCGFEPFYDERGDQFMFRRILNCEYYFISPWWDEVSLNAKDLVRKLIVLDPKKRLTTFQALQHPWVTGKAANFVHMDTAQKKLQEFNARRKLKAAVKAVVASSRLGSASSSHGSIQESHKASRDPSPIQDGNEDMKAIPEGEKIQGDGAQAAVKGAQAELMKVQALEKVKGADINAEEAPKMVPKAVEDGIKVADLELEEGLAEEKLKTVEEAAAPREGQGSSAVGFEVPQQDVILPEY

Chain of Mitogen-activated protein kinase kinase kinase kinase 4 (O95819 whole entry): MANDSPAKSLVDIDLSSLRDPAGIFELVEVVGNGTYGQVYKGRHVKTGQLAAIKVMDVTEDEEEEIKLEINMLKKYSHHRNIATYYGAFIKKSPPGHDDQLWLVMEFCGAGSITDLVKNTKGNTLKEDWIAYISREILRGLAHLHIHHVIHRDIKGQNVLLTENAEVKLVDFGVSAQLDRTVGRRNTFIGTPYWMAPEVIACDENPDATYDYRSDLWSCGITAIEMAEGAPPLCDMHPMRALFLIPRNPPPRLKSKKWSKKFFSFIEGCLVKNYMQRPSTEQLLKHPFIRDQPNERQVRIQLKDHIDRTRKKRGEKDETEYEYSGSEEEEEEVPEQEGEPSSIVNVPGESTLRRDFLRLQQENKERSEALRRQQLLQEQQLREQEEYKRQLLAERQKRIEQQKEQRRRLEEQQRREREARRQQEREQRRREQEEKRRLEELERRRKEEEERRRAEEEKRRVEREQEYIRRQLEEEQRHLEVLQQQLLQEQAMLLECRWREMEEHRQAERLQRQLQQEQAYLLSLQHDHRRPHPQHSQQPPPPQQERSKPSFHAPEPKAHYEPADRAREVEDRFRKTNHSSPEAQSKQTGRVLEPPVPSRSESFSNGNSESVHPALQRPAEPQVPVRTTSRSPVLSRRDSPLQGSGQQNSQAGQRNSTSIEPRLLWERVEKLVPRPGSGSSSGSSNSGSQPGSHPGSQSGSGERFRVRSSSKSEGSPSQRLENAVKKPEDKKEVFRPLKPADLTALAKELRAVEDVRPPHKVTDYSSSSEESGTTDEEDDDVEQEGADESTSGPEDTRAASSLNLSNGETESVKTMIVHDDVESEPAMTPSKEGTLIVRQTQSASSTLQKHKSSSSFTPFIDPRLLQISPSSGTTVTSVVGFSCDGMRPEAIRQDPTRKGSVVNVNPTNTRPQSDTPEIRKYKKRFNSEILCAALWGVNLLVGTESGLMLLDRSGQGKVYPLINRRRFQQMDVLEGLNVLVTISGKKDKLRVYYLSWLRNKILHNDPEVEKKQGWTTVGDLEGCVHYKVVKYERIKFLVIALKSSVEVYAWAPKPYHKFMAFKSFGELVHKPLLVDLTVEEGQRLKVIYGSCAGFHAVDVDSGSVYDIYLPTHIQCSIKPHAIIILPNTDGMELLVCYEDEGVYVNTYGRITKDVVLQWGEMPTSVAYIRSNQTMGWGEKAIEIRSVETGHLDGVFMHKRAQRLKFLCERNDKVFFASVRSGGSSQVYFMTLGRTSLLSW
Chain of Myosin light chain kinase, smooth muscle (Q15746 whole entry): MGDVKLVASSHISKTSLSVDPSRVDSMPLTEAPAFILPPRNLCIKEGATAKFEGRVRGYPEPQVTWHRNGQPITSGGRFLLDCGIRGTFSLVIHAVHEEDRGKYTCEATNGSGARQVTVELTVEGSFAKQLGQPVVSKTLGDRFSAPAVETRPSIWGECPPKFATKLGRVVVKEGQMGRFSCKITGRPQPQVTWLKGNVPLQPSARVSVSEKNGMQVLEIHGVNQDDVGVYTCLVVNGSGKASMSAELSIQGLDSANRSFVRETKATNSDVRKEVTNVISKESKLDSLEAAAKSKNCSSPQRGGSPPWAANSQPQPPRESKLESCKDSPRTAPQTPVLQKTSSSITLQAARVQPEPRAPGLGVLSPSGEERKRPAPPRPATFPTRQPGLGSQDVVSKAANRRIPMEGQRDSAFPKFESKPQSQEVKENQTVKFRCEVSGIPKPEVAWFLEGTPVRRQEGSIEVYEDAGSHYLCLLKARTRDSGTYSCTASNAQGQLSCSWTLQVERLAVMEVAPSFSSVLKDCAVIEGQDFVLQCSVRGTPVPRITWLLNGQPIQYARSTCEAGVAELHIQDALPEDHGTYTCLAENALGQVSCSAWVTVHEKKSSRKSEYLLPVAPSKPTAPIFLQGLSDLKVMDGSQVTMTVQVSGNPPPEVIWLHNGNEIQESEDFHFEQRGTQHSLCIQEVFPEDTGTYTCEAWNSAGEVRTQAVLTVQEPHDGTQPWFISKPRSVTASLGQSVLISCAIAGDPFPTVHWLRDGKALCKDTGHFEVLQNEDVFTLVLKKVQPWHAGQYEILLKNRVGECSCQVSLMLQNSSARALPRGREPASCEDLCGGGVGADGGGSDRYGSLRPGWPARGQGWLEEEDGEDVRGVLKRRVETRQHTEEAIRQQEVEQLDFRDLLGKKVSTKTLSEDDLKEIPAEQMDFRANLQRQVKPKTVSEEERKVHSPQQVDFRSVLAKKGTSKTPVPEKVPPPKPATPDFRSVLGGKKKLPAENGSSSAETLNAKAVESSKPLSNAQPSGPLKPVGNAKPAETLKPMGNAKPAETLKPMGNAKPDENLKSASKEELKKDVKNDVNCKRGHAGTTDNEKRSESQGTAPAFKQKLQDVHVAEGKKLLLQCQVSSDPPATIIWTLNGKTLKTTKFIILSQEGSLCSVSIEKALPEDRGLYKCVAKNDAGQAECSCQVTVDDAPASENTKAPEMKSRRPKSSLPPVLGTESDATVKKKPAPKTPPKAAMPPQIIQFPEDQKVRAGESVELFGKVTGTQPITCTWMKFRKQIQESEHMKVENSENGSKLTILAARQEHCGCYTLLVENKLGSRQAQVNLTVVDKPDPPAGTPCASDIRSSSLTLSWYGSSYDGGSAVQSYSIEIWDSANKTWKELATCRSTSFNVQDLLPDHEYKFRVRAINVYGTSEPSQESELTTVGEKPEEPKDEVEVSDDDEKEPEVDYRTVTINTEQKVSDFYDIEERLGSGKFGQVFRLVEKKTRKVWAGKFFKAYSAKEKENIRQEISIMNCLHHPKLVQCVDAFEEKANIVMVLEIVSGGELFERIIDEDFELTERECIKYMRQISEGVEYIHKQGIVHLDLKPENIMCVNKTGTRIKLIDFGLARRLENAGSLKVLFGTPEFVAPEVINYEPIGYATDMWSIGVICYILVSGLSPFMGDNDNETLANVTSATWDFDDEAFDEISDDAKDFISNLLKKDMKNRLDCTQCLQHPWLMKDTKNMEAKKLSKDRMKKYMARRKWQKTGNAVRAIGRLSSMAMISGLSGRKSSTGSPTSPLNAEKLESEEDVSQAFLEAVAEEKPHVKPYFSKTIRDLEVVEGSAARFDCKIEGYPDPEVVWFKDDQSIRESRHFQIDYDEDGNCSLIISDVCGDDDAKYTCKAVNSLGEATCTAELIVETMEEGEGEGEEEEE

Row | Compound | Kd [1] | Kd [2] | Kd (ADP/ATP translocase 3) | Kd [3] | Kd (Ephrin type-B receptor 2) | Kd [4] | Kd [5]
1 | C[C@@H]1CN(Cc2ccc(F)cc2)[C@@H](C)CN1C(=O)c1cc2c(C(=O)C(=O)N(C)C)cn(C)c2cc1Cl [TALMAPIMOD] | > 30 µM (inactive) | > 30 µM (inactive) | > 30 µM (inactive) | > 30 µM (inactive) | > 30 µM (inactive) | > 30 µM (inactive) | > 30 µM (inactive)
2 | Cc1cc(-c2cc(O)ccc2Cl)cc2nnc(Nc3ccc(OCCN4CCCC4)cc3)nc12 | > 30 µM (inactive) | > 30 µM (inactive) | > 30 µM (inactive) | > 30 µM (inactive) | 0.002 µM (active) | > 30 µM (inactive) | > 30 µM (inactive)
3 | COc1cc(CCc2cc(NC(=O)c3ccc(N4C[C@@H](C)N[C@@H](C)C4)cc3)n[nH]2)cc(OC)c1 [AZD-4547] | > 30 µM (inactive) | > 30 µM (inactive) | > 30 µM (inactive) | > 30 µM (inactive) | > 30 µM (inactive) | > 30 µM (inactive) | > 30 µM (inactive)
4 | Cc1cc([C@@H](C)Nc2ccccc2C(=O)O)c2nc(N3CCOCC3)cc(=O)n2c1 [AZD-6482] | > 30 µM (inactive) | > 30 µM (inactive) | > 30 µM (inactive) | > 30 µM (inactive) | > 30 µM (inactive) | > 30 µM (inactive) | > 30 µM (inactive)
